In general, melting point refers to the temperature of the solid-liquid transition.

`COc1ccc(-c2cnc(SCC(=O)NCC[C@@H]3C[C@@H](Cc4ccc(Cl)c(Cl)c4)CN3)nc2)cc1OC.Cl` yielded a melting point of 100.5 to 102.1 °C.

The values above are taken from US6552028B2, “2,4-substituted pyrrolidine derivatives-CCR-3 receptor antagonists” (Syntex (U.S.A.) LLC, priority 2000, dated 2003).
